{"source": "patent US9211310B2", "about": "“Use of a Chinese medicine composition in preparing medicaments for treating secondary prevention of myocardial infarction” (TASLY PHARMACEUTICAL GROUP CO., LTD, priority 2010, dated 2015)", "test_system": "patients after acute myocardial infarction", "test": "Life quality, Seattle Angina Questionnaire (SAQ), same clinical trial", "type": "in vivo, human", "description": "3508 patients who were in accordance with the diagnostic standards of AMI for 28 days to 2 years and differentiated as Qi deficiency and blood stagnation syndrome by TCM were studied. 0.5 g Chinese medicine composition prepared by the method of EXAMPLE 1 (Coded as QSYQ) was administrated half an hour after meal, 3 times per day.\nThere were 19 questions in the Seattle angina questionnaire (SAQ), including 5 parts: physical limitation (PL), anginal stability (AS), anginal frequency (AF), treatment satisfaction (TS) and disease perception (DP). After being given necessary explanation by doctors, the questions were answered independently by patients.\nThey included the overall survival time, angina pectoris score, TCM symptom score and life quality score, where angina pectoris score, TCM symptom score and life quality score were evaluated at randomization, in 1st, 3rd, 6th, 9th, 12th month after treatment and 18th month after follow-up.\nAll evaluation results of SAQ were described during the period of observation, and Wilcoxon rank sum test was used for inter-group comparison.\nThe evaluation results in the SAQ were depicted in different observations, and inter-group comparison was tested by Wilcoxon Rank-sum test.", "data": [{"smiles": "CC(=O)Oc1ccccc1C(=O)O", "note": "[Control group, aspirine]", "values": [{"measurement": "SAQ Question 1-3: Slightly limited, percent of patients", "setting": "6 months after treatment, PP", "value": "(15.66%)"}, {"measurement": "SAQ Question 1-4: Mildly limited, number of patients", "setting": "6 months after treatment, PP", "value": 266}, {"measurement": "SAQ Question 1-4: Mildly limited, percent of patients", "setting": "6 months after treatment, PP", "value": "(18.37%)"}, {"measurement": "SAQ Question 1-4: Moderately limited, number of patients", "setting": "6 months after treatment, PP", "value": 74}, {"measurement": "SAQ Question 1-4: Moderately limited, percent of patients", "setting": "6 months after treatment, PP", "value": "(5.11%)"}, {"measurement": "SAQ Question 1-4: Not limited, number of patients", "setting": "6 months after treatment, PP", "value": 613}, {"measurement": "SAQ Question 1-4: Not limited, percent of patients", "setting": "6 months after treatment, PP", "value": "(42.33%)"}, {"measurement": "SAQ Question 1-4: Other reasons, number of patients", "setting": "6 months after treatment, PP", "value": 12}, {"measurement": "SAQ Question 1-4: Other reasons, percent of patients", "setting": "6 months after treatment, PP", "value": "(0.83%)"}, {"measurement": "SAQ Question 1-4: Severely limited, number of patients", "setting": "6 months after treatment, PP", "value": 20}, {"measurement": "SAQ Question 1-4: Severely limited, percent of patients", "setting": "6 months after treatment, PP", "value": "(1.38%)"}, {"measurement": "SAQ Question 1-4: Slightly limited, number of patients", "setting": "6 months after treatment, PP", "value": 463}, {"measurement": "SAQ Question 1-4: Slightly limited, percent of patients", "setting": "6 months after treatment, PP", "value": "(31.98%)"}, {"measurement": "SAQ Question 1-5: Mildly limited, number of patients", "setting": "6 months after treatment, PP", "value": 244}, {"measurement": "SAQ Question 1-5: Mildly limited, percent of patients", "setting": "6 months after treatment, PP", "value": "(16.86%)"}, {"measurement": "SAQ Question 1-5: Moderately limited, number of patients", "setting": "6 months after treatment, PP", "value": 109}, {"measurement": "SAQ Question 1-5: Moderately limited, percent of patients", "setting": "6 months after treatment, PP", "value": "(7.53%)"}, {"measurement": "SAQ Question 1-5: Not limited, number of patients", "setting": "6 months after treatment, PP", "value": 637}, {"measurement": "SAQ Question 1-5: Not limited, percent of patients", "setting": "6 months after treatment, PP", "value": "(44.02%)"}, {"measurement": "SAQ Question 1-5: Other reasons, number of patients", "setting": "6 months after treatment, PP", "value": 12}, {"measurement": "SAQ Question 1-5: Other reasons, percent of patients", "setting": "6 months after treatment, PP", "value": "(0.83%)"}, {"measurement": "SAQ Question 1-5: Severely limited, number of patients", "setting": "6 months after treatment, PP", "value": 12}, {"measurement": "SAQ Question 1-5: Severely limited, percent of patients", "setting": "6 months after treatment, PP", "value": "(0.83%)"}, {"measurement": "SAQ Question 1-5: Slightly limited, number of patients", "setting": "6 months after treatment, PP", "value": 433}, {"measurement": "SAQ Question 1-5: Slightly limited, percent of patients", "setting": "6 months after treatment, PP", "value": "(29.92%)"}, {"measurement": "SAQ Question 1-9: Mildly limited, % of cases", "setting": "6 months after treatment, PP", "value": "(20.47%)"}, {"measurement": "SAQ Question 1-9: Mildly limited, cases", "setting": "6 months after treatment, PP", "value": 289}, {"measurement": "SAQ Question 1-9: Moderately limited, % of cases", "setting": "6 months after treatment, PP", "value": "(21.60%)"}, {"measurement": "SAQ Question 1-9: Moderately limited, cases", "setting": "6 months after treatment, PP", "value": 305}, {"measurement": "SAQ Question 1-9: Not limited, % of cases", "setting": "6 months after treatment, PP", "value": "(3.54%)"}, {"measurement": "SAQ Question 1-9: Not limited, cases", "setting": "6 months after treatment, PP", "value": 50}, {"measurement": "SAQ Question 1-9: Other limited, % of cases", "setting": "6 months after treatment, PP", "value": "(6.37%)"}, {"measurement": "SAQ Question 1-9: Other limited, cases", "setting": "6 months after treatment, PP", "value": 90}, {"measurement": "SAQ Question 1-9: Severely limited, % of cases", "setting": "6 months after treatment, PP", "value": "(34.70%)"}, {"measurement": "SAQ Question 1-9: Severely limited, cases", "setting": "6 months after treatment, PP", "value": 490}, {"measurement": "SAQ Question 1-9: Slightly limited, % of cases", "setting": "6 months after treatment, PP", "value": "(13.31%)"}, {"measurement": "SAQ Question 1-9: Slightly limited, cases", "setting": "6 months after treatment, PP", "value": 188}, {"measurement": "SAQ 2nd question: 6, % of cases", "setting": "9 months after treatment, FAS", "value": "(0.00%)"}, {"measurement": "SAQ 2nd question: 6, cases", "setting": "9 months after treatment, FAS", "value": 0}, {"measurement": "SAQ 2nd question: Clearly increased, % of cases", "setting": "9 months after treatment, FAS", "value": "(1.44%)"}, {"measurement": "SAQ 2nd question: Clearly increased, cases", "setting": "9 months after treatment, FAS", "value": 25}, {"measurement": "SAQ 2nd question: Clearly reduced, % of cases", "setting": "9 months after treatment, FAS", "value": "(24.17%)"}, {"measurement": "SAQ 2nd question: Clearly reduced, cases", "setting": "9 months after treatment, FAS", "value": 421}, {"measurement": "SAQ 2nd question: Same, % of cases", "setting": "9 months after treatment, FAS", "value": "(35.94%)"}, {"measurement": "SAQ 2nd question: Same, cases", "setting": "9 months after treatment, FAS", "value": 626}, {"measurement": "SAQ 2nd question: Slightly increased, % of cases", "setting": "9 months after treatment, FAS", "value": "(3.96%)"}, {"measurement": "SAQ 2nd question: Slightly increased, cases", "setting": "9 months after treatment, FAS", "value": 69}, {"measurement": "SAQ 2nd question: Slightly reduced, % of cases", "setting": "9 months after treatment, FAS", "value": "(34.50%)"}, {"measurement": "SAQ 2nd question: Slightly reduced, cases", "setting": "9 months after treatment, FAS", "value": 601}, {"measurement": "SAQ 3rd question: 1-2 times per week, % of cases", "setting": "9 months after treatment, FAS", "value": "(34.50%)"}, {"measurement": "SAQ 3rd question: 1-2 times per week, cases", "setting": "9 months after treatment, FAS", "value": 601}, {"measurement": "SAQ 3rd question: 1-3 times per day, % of cases", "setting": "9 months after treatment, FAS", "value": "(3.96%)"}, {"measurement": "SAQ 3rd question: 1-3 times per day, cases", "setting": "9 months after treatment, FAS", "value": 69}, {"measurement": "SAQ 3rd question: <1 time per week, % of cases", "setting": "9 months after treatment, FAS", "value": "(24.17%)"}, {"measurement": "SAQ 3rd question: <1 time per week, cases", "setting": "9 months after treatment, FAS", "value": 421}, {"measurement": "SAQ 3rd question: No onset, % of cases", "setting": "9 months after treatment, FAS", "value": "(0.00%)"}, {"measurement": "SAQ 3rd question: No onset, cases", "setting": "9 months after treatment, FAS", "value": 0}, {"measurement": "SAQ 3rd question: ≧3 times per week, % of cases", "setting": "9 months after treatment, FAS", "value": "(35.94%)"}, {"measurement": "SAQ 3rd question: ≧3 times per week, cases", "setting": "9 months after treatment, FAS", "value": 626}, {"measurement": "SAQ 3rd question: ≧4 times per day, % of cases", "setting": "9 months after treatment, FAS", "value": "(1.44%)"}, {"measurement": "SAQ 3rd question: ≧4 times per day, cases", "setting": "9 months after treatment, FAS", "value": 25}, {"measurement": "SAQ Question 1-3: Mildly limited, number of patients", "setting": "9 months after treatment, FAS", "value": 58}, {"measurement": "SAQ Question 1-3: Mildly limited, percent of patients", "setting": "9 months after treatment, FAS", "value": "(3.33%)"}, {"measurement": "SAQ Question 1-3: Moderately limited, number of patients", "setting": "9 months after treatment, FAS", "value": 17}, {"measurement": "SAQ Question 1-3: Moderately limited, percent of patients", "setting": "9 months after treatment, FAS", "value": "(0.97%)"}, {"measurement": "SAQ Question 1-3: Not limited, number of patients", "setting": "9 months after treatment, FAS", "value": 1421}, {"measurement": "SAQ Question 1-3: Not limited, percent of patients", "setting": "9 months after treatment, FAS", "value": "(81.48%)"}, {"measurement": "SAQ Question 1-3: Other reasons, number of patients", "setting": "9 months after treatment, FAS", "value": 8}, {"measurement": "SAQ Question 1-3: Other reasons, percent of patients", "setting": "9 months after treatment, FAS", "value": "(0.46%)"}, {"measurement": "SAQ Question 1-3: Severely limited, number of patients", "setting": "9 months after treatment, FAS", "value": 2}, {"measurement": "SAQ Question 1-3: Severely limited, percent of patients", "setting": "9 months after treatment, FAS", "value": "(0.11%)"}, {"measurement": "SAQ Question 1-3: Slightly limited, number of patients", "setting": "9 months after treatment, FAS", "value": 238}, {"measurement": "SAQ Question 1-3: Slightly limited, percent of patients", "setting": "9 months after treatment, FAS", "value": "(13.65%)"}, {"measurement": "SAQ Question 1-4: Mildly limited, number of patients", "setting": "9 months after treatment, FAS", "value": 264}, {"measurement": "SAQ Question 1-4: Mildly limited, percent of patients", "setting": "9 months after treatment, FAS", "value": "(15.14%)"}, {"measurement": "SAQ Question 1-4: Moderately limited, number of patients", "setting": "9 months after treatment, FAS", "value": 85}, {"measurement": "SAQ Question 1-4: Moderately limited, percent of patients", "setting": "9 months after treatment, FAS", "value": "(4.87%)"}]}]}
